Results reported in US20260285888A1, “HETEROCYCLIC COMPOUND AND USE THEREOF” (OTSUKA PHARMACEUTICAL CO., LTD., priority 2023, published 2026).

Assays:
in vitro = type: cell-based, human; details: human, differentiated hl-60 cells, 300 μmol/L, about 24 hours, PMA-differentiated HL-60 cells, LDH; no-treatment 0%, cell lysis buffer 100%; read-out: cytotoxicity (%) Evaluation compound results
Outline: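 Cytotoxicity (%) from supernatant LDH activity after ~24 h treatment at 300 μmol/L final, normalised to no-treatment (0%) and lysis buffer (100%). Cells were PMA-differentiated (10 nM, ~72 h) HL-60 in 2% FBS medium; triplicate means.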

[1] = Study for confirmation of conversion to brexpiprazole in a buffer (stability of the evaluation compounds); type: physicochemical; details: in buffer, average of duplicate; for Concentration of brexpiprazole formed: 60-minute reaction sample; for Concentration of evaluation compound decreased: decrease in 60-minute vs 0-minute reaction sample
Outline: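 Compounds (final 1 μmol/L, from 100 μmol/L working solutions) incubated in buffer at 37° C. for 0 or 60 min, in duplicate, after 3 min pre-incubation of the reaction solution. Reactions stopped with acetonitrile/isopropanol (4:1) containing internal standards; compound and formed brexpiprazole quantified against 0.01–1 μmol/L calibration samples.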

SMILES	Concentration of brexpiprazole formed [1]	Concentration of evaluation compound decreased [1]	cytotoxicity at 24 h, 300 µM (in vitro)
CCOCCOC(=O)OCOP(=O)([O-])OC[N+]1(CCCCOc2ccc3ccc(=O)[nH]c3c2)CCN(c2cccc3sccc23)CC1 [EX 132, (4-(benzo[b]thiophen-4-yl)-1-(4-((2-oxo-1,2-dihydroquinolin-7-yl)oxy)butyl)piperazin-1-ium-1-yl)methyl ((((2-ethoxyethoxy)carbonyl)oxy)methyl) phosphate]	0 nM	130 nM	-7%
CC(C)OCCOC(=O)OCOP(=O)([O-])OC[N+]1(CCCCOc2ccc3ccc(=O)[nH]c3c2)CCN(c2cccc3sccc23)CC1 [EX 133, (4-(benzo[b]thiophen-4-yl)-1-(4-((2-oxo-1,2-dihydroquinolin-7-yl)oxy)butyl)piperazin-1-ium-1-yl)methyl ((((2-isopropoxyethyloxy)carbonyl)oxy)methyl) phosphate]	0 nM	140 nM	-5%
CCOCCOCCOC(=O)OCOP(=O)([O-])OC[N+]1(CCCCOc2ccc3ccc(=O)[nH]c3c2)CCN(c2cccc3sccc23)CC1 [EX 134, (4-(benzo[b]thiophen-4-yl)-1-(4-((2-oxo-1,2-dihydroquinolin-7-yl)oxy)butyl)piperazin-1-ium-1-yl)methyl (3-oxo-2,4,7,10-tetraoxadodecyl) phosphate]	0 nM	70 nM	-7%
CCCCOCCOCCOC(=O)OCOP(=O)([O-])OC[N+]1(CCCCOc2ccc3ccc(=O)[nH]c3c2)CCN(c2cccc3sccc23)CC1 [EX 135, (4-(benzo[b]thiophen-4-yl)-1-(4-((2-oxo-1.2-dihydroquinolin-7-yl)oxy)butyl)piperazin-1-ium-1-yl)methyl (3-oxo-2,4,7,10-tetraoxatetradecyl) phosphate]	0 nM	70 nM	-4%
CCOCCOCCOCCOC(=O)OCOP(=O)([O-])OC[N+]1(CCCCOc2ccc3ccc(=O)[nH]c3c2)CCN(c2cccc3sccc23)CC1 [EX 136, (4-(benzo[b]thiophen-4-yl)-1-(4-((2-oxo-1,2-dihydroquinolin-7-yl)oxy)butyl)piperazin-1-ium-1-yl)methyl (3-oxo-2,4,7,10,13-pentaoxapentadecyl) phosphate]	0 nM	0 nM	-9%
CC(C)OCCOCCOCCOC(=O)OCOP(=O)([O-])OC[N+]1(CCCCOc2ccc3ccc(=O)[nH]c3c2)CCN(c2cccc3sccc23)CC1 [EX 137, (4-(benzo[b]thiophen-4-yl)-1-(4-((2-oxo-1,2-dihydroquinolin-7-yl)oxy)butyl)piperazin-1-ium-1-yl)methyl (14-methyl-3-oxo-2,4,7,10,13-pentaoxapentadecyl) phosphate]	0 nM	90 nM	-8%
CCCCOCCOCCOCCOC(=O)OCOP(=O)([O-])OC[N+]1(CCCCOc2ccc3ccc(=O)[nH]c3c2)CCN(c2cccc3sccc23)CC1 [EX 138, (4-(benzo[b]thiophen-4-yl)-1-(4-((2-oxo-1,2-dihydroquinolin-7-yl)oxy)butyl)piperazin-1-ium-1-yl)methyl (3-oxo-2,4,7,10,13-pentaoxaheptadecyl) phosphate]	0 nM	90 nM	-7%
COCCCOC(=O)OCOP(=O)([O-])OC[N+]1(CCCCOc2ccc3ccc(=O)[nH]c3c2)CCN(c2cccc3sccc23)CC1 [EX 139, (4-(benzo[b]thiophen-4-yl)-1-(4-((2-oxo-1,2-dihydroquinolin-7-yl)oxy)butyl)piperazin-1-ium-1-yl)methyl ((((3-methoxypropoxy)carbonyl)oxy)methyl) phosphate]	0 nM	120 nM	-4%
O=C(OCCCOC1CCCCO1)OCOP(=O)([O-])OC[N+]1(CCCCOc2ccc3ccc(=O)[nH]c3c2)CCN(c2cccc3sccc23)CC1 (stereo not drawn) [EX 140, (4-(benzo[b]thiophen-4-yl)-1-(4-((2-oxo-1,2-dihydroquinolin-7-yl)oxy)butyl)piperazin-1-ium-1-yl)methyl ((((3-((tetrahydro-2H-pyran-2-yl)oxy)propoxy)carbonyl)oxy)methyl) phosphate]	0 nM	-20 nM	9%
O=C(OCOP(=O)([O-])OC[N+]1(CCCCOc2ccc3ccc(=O)[nH]c3c2)CCN(c2cccc3sccc23)CC1)OC1CCOCC1 [EX 141, (4-(benzo[b]thiophen-4-yl)-1-(4-((2-oxo-1,2-dihydroquinolin-7-yl)oxy)butyl)piperazin-1-ium-1-yl)methyl (((((tetrahydro-2H-pyran-4-yl)oxy)carbonyl)oxy)methyl) phosphate]	0 nM	20 nM	19%
O=C(OCOP(=O)([O-])OC[N+]1(CCCCOc2ccc3ccc(=O)[nH]c3c2)CCN(c2cccc3sccc23)CC1)OCC1CCOCC1 [EX 142, (4-(benzo[b]thiophen-4-yl)-1-(4-((2-oxo-1,2-dihydroquinolin-7-yl)oxy)butyl)piperazin-1-ium-1-yl)methyl (((((tetrahydro-2H-pyran-4-yl)methoxy)carbonyl)oxy)methyl) phosphate]	0 nM	-70 nM	8%
CCOC(=O)CCOC(=O)OCOP(=O)([O-])OC[N+]1(CCCCOc2ccc3ccc(=O)[nH]c3c2)CCN(c2cccc3sccc23)CC1 [EX 143, (4-(benzo[b]thiophen-4-yl)-1-(4-((2-oxo-1,2-dihydroquinolin-7-yl)oxy)butyl)piperazin-1-ium-1-yl)methyl ((((3-ethoxy-3-oxopropoxy)carbonyl)oxy)methyl) phosphate]	0 nM	50 nM	-5%

More lines, main results first:

Concentration of brexpiprazole formed [1]	Concentration of evaluation compound decreased [1]	SMILES	cytotoxicity at 24 h, 300 µM (in vitro)
0 nM	120 nM	CCOC(=O)CCCCCOC(=O)OCOP(=O)([O-])OC[N+]1(CCCCOc2ccc3ccc(=O)[nH]c3c2)CCN(c2cccc3sccc23)CC1 [EX 144]	18%
0 nM	30 nM	O=C(O)CCCCCOC(=O)OCOP(=O)([O-])OC[N+]1(CCCCOc2ccc3ccc(=O)[nH]c3c2)CCN(c2cccc3sccc23)CC1 [EX 145, (4-(benzo[b]thiophen-4-yl)-1-(4-((2-oxo-1,2-dihydroquinolin-7-yl)oxy)butyl)piperazin-1-ium-1-yl)methyl (((((5-carboxypentyl)oxy)carbonyl)oxy)methyl) phosphate]	-9%
0 nM	110 nM	O=C(OCCCN1CCOCC1)OCOP(=O)([O-])OC[N+]1(CCCCOc2ccc3ccc(=O)[nH]c3c2)CCN(c2cccc3sccc23)CC1 [EX 146, (4-(Benzo[b]thiophen-4-yl)-1-(4-((2-oxo-1,2-dihydroquinolin-7-yl)oxy)butyl)piperazin-1-ium-1-yl)methyl ((((3-morpholinopropoxy)carbonyl)oxy)methyl) phosphate]	1%
0 nM	70 nM	CCOC(=O)C1CCN(CCOP(=O)([O-])OC[N+]2(CCCCOc3ccc4ccc(=O)[nH]c4c3)CCN(c3cccc4sccc34)CC2)CC1 [EX 147, (4-(benzo[b]thiophen-4-yl)-1-(4-((2-oxo-1,2-dihydroquinolin-7-yl)oxy)butyl)piperazin-1-ium-1-yl)methyl (2-(4-(ethoxycarbonyl)piperidin-1-yl)ethyl) phosphate]	-6%
0 nM	110 nM	CC(C)(C)C(=O)OP(=O)([O-])OC[N+]1(CCCCOc2ccc3ccc(=O)[nH]c3c2)CCN(c2cccc3sccc23)CC1 [EX 150, (4-(benzothiophen-4-yl)-1-(4-((2-oxo-1H-quinolin-7-yl)oxy)butyl)piperazin-1-ium-1-yl)methyl 2,2-dimethylpropanoyl phosphate]	10%
0 nM	-10 nM	CCNP(=O)([O-])OC[N+]1(CCCCOc2ccc3ccc(=O)[nH]c3c2)CCN(c2cccc3sccc23)CC1 [EX 151, (4-(benzo[b]thiophen-4-yl)-1-(4-((2-oxo-1,2-dihydroquinolin-7-yl)oxy)butyl)piperazin-1-ium-1-yl)methyl ethylphosphoramidate]	-6%
0 nM	10 nM	COCCNP(=O)([O-])OC[N+]1(CCCCOc2ccc3ccc(=O)[nH]c3c2)CCN(c2cccc3sccc23)CC1 [EX 152, (4-(benzo[b]thiophen-4-yl)-1-(4-((2-oxo-1,2-dihydroquinolin-7-yl)oxy)butyl)piperazin-1-ium-1-yl)methyl (2-methoxyethyl)phosphoramidate]	-10%
